Assay results from patent US20140349948A1, “Treatment of Chronic Constipation” (Forest Laboratories Holdings Limited, priority 2009, published 2014).
Marks after values point to notes of the source that are not given here. Residues, ends and D or L forms follow the SMILES beside them.

Legend:
[1] = test system: patients with chronic constipation; assay: Chronic Constipation Trial 2, 12-week treatment period; format: in vivo, human
Method: (§1) Linaclotide Capsules from Example 4 were administered in multicenter, randomized, double-blind, placebo-controlled trials.
(§2) Trial 1 was conducted in 630 patients meeting modified Rome II criteria for chronic constipation. The trial included a two-week pretreatment baseline period and a 12-week treatment period. A diagram of the study design for Trial 2 is given in FIG. 1, which is substantially similar to Trial 1 except for the addition of a Randomized Withdrawal period in Trial 2 as described below.
The Treatment Period began with randomization and lasted for 12 weeks. Patients were randomized to treatment with 133 μg linaclotide, 266 μg linaclotide, or placebo (1:1:1), taken once daily in the morning. Patients continued to provide their daily assessments such as their daily bowel habit assessments and daily patient symptom severity assessments.
(§3) Trial 2 was conducted in 642 patients and was identical to Trial 1 except that Trial 2 also included a four-week Randomized Withdrawal Period, defined below. During the two-week pretreatment (baseline) period, 68 percent of patients in Trial 2 had no CSBMs.

[2] = test system: patients with chronic constipation; assay: Trials 1 and 2 pooled; format: in vivo, human; conditions: for Straining, Week 1 Mean Change from Baseline / Abdominal discomfort, Week 1 Mean Change from Baseline / Bloating, Week 1 Mean Change from Baseline / Constipation severity, Week 1 Mean Change from Baseline: 5-point scale: 1 = none; for Straining, Week 1 Mean Change from Baseline: 5 = an extreme amount; for Abdominal discomfort, Week 1 Mean Change from Baseline / Bloating, Week 1 Mean Change from Baseline / Constipation severity, Week 1 Mean Change from Baseline: 5 = very severe; for Stool Consistency, Week 1 Mean Change from Baseline: 7-point scale (BSFS)
Method: as §1, §2, §3

[3] = Systemic linaclotide levels after oral administration; format: in vivo; conditions: after oral administration at therapeutic dose levels
Excerpt: (§4) Linaclotide is a peptide GC-C agonist that is orally administered and currently in clinical trials for treatment of irritable bowel syndrome with constipation (IBS-c) and CC.

CC = assay: Phase 2b studies for CC, four-week treatment; format: in vivo; conditions: throughout the four-week treatment period
Excerpt: as §4

[4] = 266 μg, Trial 2 (n = 216), 5-point scale: 1 = none, 5 = very severe
[5] = Trial 2, 133 μg (p≦0.0001) and 266 μg (p≦0.0001)

## C[C@@H]1NC(=O)[C@@H]2CCCN2C(=O)[C@H](CC(N)=O)NC(=O)[C@@H]2CSSC[C@H](N)C(=O)N[C@H]3CSSC[C@H](NC1=O)C(=O)N[C@@H]([C@@H](C)O)C(=O)NCC(=O)N[C@H](C(=O)N[C@@H](Cc1ccc(O)cc1)C(=O)O)CSSC[C@H](NC(=O)[C@H](Cc1ccc(O)cc1)NC(=O)[C@H](CCC(=O)O)NC3=O)C(=O)N2 [Linaclotide, Cys1 Cys2 Glu3 Tyr4 Cys5 Cys6 Asn7 Pro8 Ala9 Cys10 Thr11 Gly12 Cys13 Tyr14] (HELM PEPTIDE1{C.C.E.Y.C.C.N.P.A.C.T.G.C.Y}$PEPTIDE1,PEPTIDE1,1:R3-6:R3|PEPTIDE1,PEPTIDE1,2:R3-10:R3|PEPTIDE1,PEPTIDE1,5:R3-13:R3$$$V2.0)
[1]; 266 μg, Trial 2 (n = 216)
  SBM rate, Week 1 Mean Change from Baseline: 3.61***
[1]; 266 μg, Trial 2 (n = 216), 5-point scale: 1 = none, 5 = an extreme amount
  Straining, Week 1 Mean Change from Baseline: −1.06***
[1]; [4]
  Abdominal discomfort, Week 1 Mean Change from Baseline: −0.21
  Bloating, Week 1 Mean Change from Baseline: −0.27*
  Constipation severity, Week 1 Mean Change from Baseline: −0.76***
[1]; 266 μg, Trial 2 (n = 216), 7-point scale (BSFS)
  Stool Consistency, Week 1 Mean Change from Baseline: 1.81***
[1]; Trial 2, 133 μg
  12-week CSBM overall responder rate: 21.2%
  increase in average weekly CSBMs from baseline: 1.9
  increase in average weekly SBMs from baseline: 3.0
  numerical increase of 12-week CSBM overall responder rate as compared to placebo: 6.3 fold
  patients reporting at least one CSBM within 24 hours of treatment: 33.2%
  patients reporting at least one SBM within 24 hours of treatment: 70.0%
  patients who experienced weekly CSBMs in at least nine out of 12 weeks: 21.7%
  patients with increase of ≧1 from baseline in weekly CSBMs in at least nine out of 12 weeks: 39.2%
  patients with increase of ≧1 from baseline in weekly CSBMs in at least six out of 12 weeks: 56.7%
[1]; Trial 2, 266 μg
  12-week CSBM overall responder rate: 19.4%
  increase in average weekly CSBMs from baseline: 2.0
  increase in average weekly SBMs from baseline: 3.0
  numerical increase of 12-week CSBM overall responder rate as compared to placebo: 5.8 fold
  patients reporting at least one CSBM within 24 hours of treatment: 26.9%
  patients reporting at least one SBM within 24 hours of treatment: 54.6%
  patients who experienced weekly CSBMs in at least nine out of 12 weeks: 19.4%
  patients with increase of ≧1 from baseline in weekly CSBMs in at least nine out of 12 weeks: 37.0%
  patients with increase of ≧1 from baseline in weekly CSBMs in at least six out of 12 weeks: 50.5%
[1]; [5]
  PAC-QOL overall assessments, 12 week overall mean change versus placebo: statistically significant improvements
  overall constipation severity score, 12 week overall mean change versus placebo: statistically significant improvements
  severity of straining score, 12 week overall mean change versus placebo: statistically significant improvements
  stool consistency score, 12 week overall mean change versus placebo: statistically significant improvements
[1]; Trial 2, 133 μg (p≦0.0001) and 266 μg (p≦0.01)
  bloating score, 12 week overall mean change versus placebo: statistically significant improvements
[1]; Trial 2, 133 μg (p≦0.001) and 266 μg (p≦0.01)
  abdominal discomfort score, 12 week overall mean change versus placebo: statistically significant improvements
[1]; study 2, week 2 (p<0.01)
  abdominal discomfort in week 2: Statistically significant improvement
[2]; 133 μg, Pooled (n = 430)
  CSBM rate, Week 1 Mean Change from Baseline: 2.02**
  SBM rate, Week 1 Mean Change from Baseline: 3.96***
  Straining, Week 1 Mean Change from Baseline: −1.02***
  Abdominal discomfort, Week 1 Mean Change from Baseline: −0.26***
  Bloating, Week 1 Mean Change from Baseline: −0.31***
  Constipation severity, Week 1 Mean Change from Baseline: −0.82***
  Stool Consistency, Week 1 Mean Change from Baseline: 1.78***
[2]; 266 μg, Pooled (n = 418)
  CSBM rate, Week 1 Mean Change from Baseline: 2.42**
  SBM rate, Week 1 Mean Change from Baseline: 4.01***
  Straining, Week 1 Mean Change from Baseline: −1.14***
  Abdominal discomfort, Week 1 Mean Change from Baseline: −0.26***
  Bloating, Week 1 Mean Change from Baseline: −0.31***
  Constipation severity, Week 1 Mean Change from Baseline: −0.85***
  Stool Consistency, Week 1 Mean Change from Baseline: 1.87***
[2]; both trial 1 and 2
  Overall rates of discontinuation due to adverse events: 7.4%
[2]; both trial 1 and 2, linaclotide-treated patients
  most common adverse events: diarrhea, flatulence, and abdominal pain
[3]
  levels seen systemically: no detectable levels
CC
  effect on constipation, abdominal discomfort, and bloating: reduced constipation, abdominal discomfort, and bloating
